Experimental data reported in US11440888B2, “Microbiocidal quinoline carboxamide derivatives” (SYNGENTA CROP PROTECTION AG, priority 2018, dated 2022).

Q: Which melting point does the source give for Cc1c(NC(=O)C(Cl)(Cc2ccccc2)CC(C)C)cnc2c(F)cccc12 (stereo not drawn) [E.05, 2-benzyl-2-chloro-N-(8-fluoro-4-methyl-3-quinolyl)-4-methyl-pentanamide] here?
A: Its melting point is 140 to 141 °C.

Q: Which melting point does the source give for O=C(Nc1cnc2c(F)cccc2c1)C(Cl)(Cc1ccccc1)CC(F)(F)F (stereo not drawn) [E.06, 2-benzyl-2-chloro-4,4,4-trifluoro-N-(8-fluoro-3-quinolyl)butanamide] here?
A: Its melting point is 106 to 108 °C.

Q: For Cc1c(NC(=O)C(Cl)(Cc2ccccc2)CC(F)(F)F)cnc2c(F)cccc12 (stereo not drawn) [E.01, 2-benzyl-2-chloro-4,4,4-trifluoro-N-(8-fluoro-4-methyl-3-quinolyl)butanamide], which melting point is on record?
A: Its melting point is 179 to 181 °C.
